Reference: US20120009277A1, “METHOD FOR SELECTION OF NOVEL ANTI-CANCER HERBS USING CHEMINFORMATIC TOOLS” (priority 2010, published 2012)

Experiments:
Type in all cases: cell-based
[1] = tested on: A2780/cp (human ovarian carcinoma, resistant to cisplatin); test: MTT cytotoxicity assay on A2780/cp cells, single agents and cisplatin combinations; details: cisplatin alone, 24 hr
Description: (§1) Anticancer drug resistant cancerous cell lines; A2780/cp (human ovarian carcinoma, resistant to cisplatin) NCBI C454, ACHN (human renal adenocarcinoma) NCBI C206, and normal cell line HF2 (human fetal fibroblast) NCBI C336 herein used as a cell negative control are obtained from National Cell Bank of Iran, Pasture Institute of Iran (Tehran). These cells are maintained in RPMI 1640 medium supplemented with 10% FCS in a humidified incubator (37° C. and 5% CO2).
(§2) Cells are cultured in RPMI-1640 medium supplemented with 10% heat inactivated FCS, 2 mM glutamine, penicillin ([…]) and streptomycin (100 μg/ml) at 37° C. in an incubator containing 5% CO2.
(§3) Harvested cells with trypsin (0.25%) are counted by Neubauer slide and then are seeded into 96-well plates (104 cell/well). […] The insoluble formazan produced is dissolved in solution containing 100 μl DMSO (Dimethyl sulfoxide) and Optical Density (absorbance) is read against blank reagent with Multiwell scanning spectrophotometer (ELISA reader, Organon Tekninka, the Netherlands) at a wavelength of 545 nm. The percentage of cytotoxicity is calculated according to following equations: […]

[2] = tested on: ACHN (human renal adenocarcinoma); test: MTT cytotoxicity assay on ACHN cells, single agents and doxorubicin combinations; details: doxorubicin alone, 24 hr
Description: as §1, §2, §3

[3] = tested on: HF2 (human fetal fibroblast); test: MTT cytotoxicity assay on HF2 normal cells, single agents and doxorubicin combinations; details: doxorubicin alone, 24 hr
Description: as §1, §2, §3

| Compound | IC50 [1] [µM] | IC50 [2] [µM] | IC50 [3] [nM] |
| --- | --- | --- | --- |
| N.N.[Cl][Pt][Cl] [Cisplatin] | 42.5 |  |  |
| COc1cccc2c1C(=O)c1c(O)c3c(c(O)c1C2=O)C[C@@](O)(C(=O)CO)C[C@@H]3O[C@H]1C[C@H](N)[C@H](O)[C@H](C)O1 [Doxorubicin] |  | 3.92 | 1310 |
